Assays:
Assay type in all cases: in vivo
[1] = system: relapsing-remitting EAE (RR-EAE); experiment: Relapsing-remitting EAE (RR-EAE) driven by PLP in SJL/J mice; conditions: 0.2 mg/treatment on days 6, 9, 12, by MN or soluble i.p. injection; for RR-EAE mean score: measured at the last treatment day
Experimental: (§1) We confirmed the activity and dose-dependence of traditional GA regimens using daily GA injections (i.p.) at 0.2 or 2.0 mg/day beginning at disease onset in EAE (arrows; N=10/group). As discussed above, EAE is a progressive mouse model of MOG-driven inflammation that results in severe paralysis over several weeks; higher clinical scores indicate more severe disease (FIG. 3, panel A). Next we formulated GA-MNs (with sucrose stabilizer) such that a single MN patch contained 0.2 mg—confirmed by dissolution and fluorimetry—to match the ineffective injected GA dose in FIG. 3 panel A. The actual amount of GA delivered from MNs is likely less than the total GA loading due to accumulation on the backing. Mice were then treated at the ear on days 5, 10, 15, and 20 with GA-MNs or control MNs lacking GA (“Sucrose MN”). […] To analyze this approach in another inflammation model driven by a different myelin peptide—PLP, SJL/J mice were induced with relapsing-remitting EAE (RR-EAE) then treated on days 6, 9, and 12 (N=15/group) using equivalent doses 0.2 mg/treatment (tx) group of GA by MN or soluble i.p. injection.

[2] = system: Experimental Autoimmune Encephalomyelitis (EAE); experiment: Experimental Autoimmune Encephalomyelitis (EAE), progressive mouse model of MOG-driven inflammation
Experimental: as §1

[3] = system: lymphocytes, TREG, CD45+CD4+ T cells; experiment: Flow cytometry of cervical LNs, spleen and spinal cord in RR-EAE mice; conditions: Day 10 and Day 12, relative to untreated mice with RR-EAE
Experimental: To analyze this, we analyzed whether GA-MN could increase TREG, and, that because of the decreased clinical scores in FIG. 3, these effects might be evident in cervical LNs. Using analogous regimens to FIG. 3 panel D (RR-EAE), mice were euthanized at Day 10 and Day 12, then cervical LNs and spleen were assessed by flow cytometry. Relative to untreated mice with RR-EAE, GA-MN increased both the number of lymphocytes (FIG. 4 panel A) and the number of TREG (FIG. 4 panel B); these effects were not observed in mice treated with soluble GA. […] At day 12, we assessed the number of lymphocytes and activated CD4^+ T cells, as indicated by staining for CD45^+/CD4^+ cells. Though the group sizes (N=5) were insufficient for statistical significance, we observed a trend that GA-MN decreased the number of lymphocytes the spinal cord (FIG. 5 panel A), as well as the number of infiltrating CD45^+CD4^+ cells (FIG. 5 panels B and C). The data in these Examples indicate GA-MNs deliver GA through the skin of mice at doses that provide efficacy in EAE and RR-EAE.

glatiramer acetate [GA]
RR-EAE disease progression ([1]; listed as injectable GA): does not | RR-EAE disease progression ([1]; listed as soluble GA): no effect | RR-EAE mean score ([1]; listed as injectable GA): does not | RR-EAE mean score ([1]; listed as soluble GA): no effect | EAE clinical score, effect of injected GA ([2]; daily GA injections i.p. 0.2 mg/day beginning at disease onset): ineffective | EAE clinical score, dose dependence of daily GA dosing ([2]; daily GA injections i.p. at 0.2 or 2.0 mg/day beginning at disease onset): dose-dependent effects | Number of TREG in cervical LNs [3]: not observed | Number of lymphocytes in cervical LNs [3]: not observed

— patent publication US20210000907A1, “MICRONEEDLE-MEDIATED DELIVERY OF TOLEROGENIC IMMUNOTHERAPEUTICS” (University of Maryland, College Park, priority 2017, published 2021)
